The assay relates to HBV (2.2.15 cells). The assay can be described thus: Antiviral activity in 2.2.15 cells: reduction of viral product accumulation (qPCR of lysates, HBsAg or HBeAg ELISA). In kind it is cell-based, hepatitis B virus (HBV). The conditions noted are these: Hepatitis B virus, 120 h, day 5 post treatment, 50% reduction of viral product accumulation in lysates or supernatants vs no drug controls, readout (qPCR, HBsAg, HBeAg) not specified. The method, boiled down:
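HBV-producing 2.2.15 cells, 35,000/well, treated with 5-fold serial compound dilutions at 0.5% final DMSO for 5 days. Lysate HBV DNA by qPCR or supernatant HBsAg/HBeAg by ELISA; EC50 is 50% reduction versus no-drug control, binned A<0.1 μM, B 0.1-1 μM, C>1 μM.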

Results on 26 molecules are retold here after patent US11058678B2 (Enanta Pharmaceuticals, Inc., priority 2018, dated 2021).

pEC50: −log10 of the molar value. A value given as a limit tells only on which side of the number the result lay.

`COCCCOc1cc2c(cc1-c1ccnn1C)-c1cc(=O)c(C(=O)O)cn1[C@H]1[C@@H]2COC1(C)C` [Example 122, (3aS,12bR)-11-(3-methoxypropoxy)-3,3-dimethyl-10-(1-methyl-1H-pyrazol-5-yl)-7-oxo-3,3a,7,12b-tetrahydro-1H-furo[3,4-c]pyrido[2,1-a]isoquinoline-6-carboxylic Acid]: the pEC50 was less than 6.00.
Molecule `COCCCOc1cc2c(cc1-c1cnn(C)c1)-c1cc(=O)c(C(=O)O)cn1[C@H]1[C@@H]2COC1(C)C` [Example 123, (3aS,12bR)-11-(3-methoxypropoxy)-3,3-dimethyl-10-(1-methyl-1H-pyrazol-4-yl)-7-oxo-3,3a,7,12b-tetrahydro-1H-furo[3,4-c]pyrido[2,1-a]isoquinoline-6-carboxylic Acid] had a pEC50 of more than 7.00.
In the case of `COCCCOc1cc2c(cc1-c1ccn(C)n1)-c1cc(=O)c(C(=O)O)cn1[C@H]1[C@@H]2COC1(C)C` [Example 124, (3aS,12bR)-11-(3-methoxypropoxy)-3,3-dimethyl-10-(1-methyl-1H-pyrazol-3-yl)-7-oxo-3,3a,7,12b-tetrahydro-1H-furo[3,4-c]pyrido[2,1-a]isoquinoline-6-carboxylic Acid] it was more than 7.00; in that of `COCCCOc1cc2c(cc1-c1ccco1)-c1cc(=O)c(C(=O)O)cn1[C@H]1[C@@H]2COC1(C)C` [Example 125, (3aS,12bR)-10-(furan-2-yl)-11-(3-methoxypropoxy)-3,3-dimethyl-7-oxo-3,3a,7,12b-tetrahydro-1H-furo[3,4-c]pyrido[2,1-a]isoquinoline-6-carboxylic Acid], more than 7.00; in that of `COCCCOc1cc2c(cc1-c1ccoc1)-c1cc(=O)c(C(=O)O)cn1[C@H]1[C@@H]2COC1(C)C` [Example 126, (3aS,12bR)-10-(furan-3-yl)-11-(3-methoxypropoxy)-3,3-dimethyl-7-oxo-3,3a,7,12b-tetrahydro-1H-furo[3,4-c]pyrido[2,1-a]isoquinoline-6-carboxylic Acid], more than 7.00.
The molecule `COCCCOc1cc2c(cc1-c1cnsc1)-c1cc(=O)c(C(=O)O)cn1[C@H]1[C@@H]2COC1(C)C` [Example 127, (3aS,12bR)-10-(isothiazol-4-yl)-11-(3-methoxypropoxy)-3,3-dimethyl-7-oxo-3,3a,7,12b-tetrahydro-1H-furo[3,4-c]pyrido[2,1-a]isoquinoline-6-carboxylic Acid] showed a pEC50 of more than 7.00.
In the case of `COCCCOc1cc2c(cc1-c1cccnc1)-c1cc(=O)c(C(=O)O)cn1[C@H]1[C@@H]2COC1(C)C` [Example 128, (3aS,12bR)-11-(3-methoxypropoxy)-3,3-dimethyl-7-oxo-10-(pyridin-3-yl)-3,3a,7,12b-tetrahydro-1H-furo[3,4-c]pyrido[2,1-a]isoquinoline-6-carboxylic Acid] it was more than 7.00; in that of `CC(C)(C)[C@@H]1Cc2c(cc(C3CCCO3)c3c2CCO3)-c2cc(=O)c(C(=O)O)cn21` (stereo partly drawn) [Example 129, (5S)-5-(tert-butyl)-9-oxo-12-(tetrahydrofuran-2-yl)-2,3,4,9-tetrahydro-5H-furo[3,2-f]pyrido[2,1-a]isoquinoline-8-carboxylic Acid], more than 7.00; in that of `CC(C)(C)[C@@H]1Cc2c(cc(C3CCOC3)c3c2CCO3)-c2cc(=O)c(C(=O)O)cn21` (stereo partly drawn) [Example 130, (5S)-5-(tert-butyl)-9-oxo-12-(tetrahydrofuran-3-yl)-2,3,4,9-tetrahydro-5H-furo[3,2-f]pyrido[2,1-a]isoquinoline-8-carboxylic Acid], more than 7.00.
In the case of `CC(C)(C)[C@@H]1Cc2c(cc(C3COC3)c3c2CCO3)-c2cc(=O)c(C(=O)O)cn21` [Example 131, (S)-5-(tert-butyl)-12-(oxetan-3-yl)-9-oxo-2,3,4,9-tetrahydro-5H-furo[3,2-f]pyrido[2,1-a]isoquinoline-8-carboxylic Acid] it was more than 7.00; in that of `CC1(C)Cc2c3c(cc(-c4ccoc4)c2O1)-c1cc(=O)c(C(=O)O)cn1[C@H](C(C)(C)C)C3` [Example 133, (S)-5-(tert-butyl)-12-(furan-3-yl)-2,2-dimethyl-9-oxo-2,3,4,9-tetrahydro-5H-furo[3,2-f]pyrido[2,1-a]isoquinoline-8-carboxylic acid], 6.00 to 7.00; in that of `COCCCCc1cc2c(cc1-c1ccc(F)cc1)-c1cc(=O)c(C(=O)O)cn1[C@H](C(C)(C)C)C2` [Example 134, (S)-6-(tert-butyl)-10-(4-fluorophenyl)-9-(4-methoxybutyl)-2-oxo-6,7-dihydro-2H-pyrido[2,1-a]isoquinoline-3-carboxylic Acid], more than 7.00.
In the case of `COCCCOc1cc2c(cc1-c1cn[nH]c1)-c1cc(=O)c(C(=O)O)cn1[C@H]1[C@@H]2COC1(C)C` [Example 135, (3aS,12bR)-11-(3-methoxypropoxy)-3,3-dimethyl-7-oxo-10-(1H-pyrazol-4-yl)-3,3a,7,12b-tetrahydro-1H-furo[3,4-c]pyrido[2,1-a]isoquinoline-6-carboxylic Acid] it was more than 7.00; in that of `COCCCOc1cc2c(cc1-c1ccccc1F)-c1cc(=O)c(C(=O)O)cn1[C@H]1[C@@H]2COC1(C)C` [Example 136, (3aS,12bR)-10-(2-fluorophenyl)-11-(3-methoxypropoxy)-3,3-dimethyl-7-oxo-3,3a,7,12b-tetrahydro-1H-furo[3,4-c]pyrido[2,1-a]isoquinoline-6-carboxylic Acid], more than 7.00; in that of `COCCCOc1cc2c(cc1-c1ccc(Cl)cc1)-c1cc(=O)c(C(=O)O)cn1[C@H]1[C@@H]2COC1(C)C` [Example 137, (3aS,12bR)-10-(4-chlorophenyl)-11-(3-methoxypropoxy)-3,3-dimethyl-7-oxo-3,3a,7,12b-tetrahydro-1H-furo[3,4-c]pyrido[2,1-a]isoquinoline-6-carboxylic Acid], less than 6.00.
On to `COCCCOc1cc2c(cc1-c1cccc(Cl)c1)-c1cc(=O)c(C(=O)O)cn1[C@H]1[C@@H]2COC1(C)C` [Example 138, (3aS,12bR)-10-(3-chlorophenyl)-11-(3-methoxypropoxy)-3,3-dimethyl-7-oxo-3,3a,7,12b-tetrahydro-1H-furo[3,4-c]pyrido[2,1-a]isoquinoline-6-carboxylic Acid], for which the pEC50 is more than 7.00.
In the case of `COCCCOc1cc2c(cc1-c1ccccc1Cl)-c1cc(=O)c(C(=O)O)cn1[C@H]1[C@@H]2COC1(C)C` [Example 139, (3aS,12bR)-10-(2-chlorophenyl)-11-(3-methoxypropoxy)-3,3-dimethyl-7-oxo-3,3a,7,12b-tetrahydro-1H-furo[3,4-c]pyrido[2,1-a]isoquinoline-6-carboxylic Acid] it was more than 7.00.
`COCCCOc1cc2c(cc1-c1cccc(OC)c1)-c1cc(=O)c(C(=O)O)cn1[C@H]1[C@@H]2COC1(C)C` [Example 140, (3aS,12bR)-10-(3-methoxyphenyl)-11-(3-methoxypropoxy)-3,3-dimethyl-7-oxo-3,3a,7,12b-tetrahydro-1H-furo[3,4-c]pyrido[2,1-a]isoquinoline-6-carboxylic Acid] had a pEC50 of more than 7.00.
Molecule `COCCCOc1cc2c(cc1-c1ccccc1)-c1cc(=O)c(C(=O)O)cn1[C@H]1[C@@H]2COC1(C)C` [Example 141] had a pEC50 of more than 7.00.
In the case of `COCCCOc1cc2c(cc1-c1cccs1)-c1cc(=O)c(C(=O)O)cn1[C@H]1[C@@H]2COC1(C)C` [Example 142, (3aS,12bR)-11-(3-methoxypropoxy)-3,3-dimethyl-7-oxo-10-(thiophen-2-yl)-3,3a,7,12b-tetrahydro-1H-furo[3,4-c]pyrido[2,1-a]isoquinoline-6-carboxylic Acid] it was more than 7.00.
With `COCCCOc1cc2c(cc1-c1ccsc1)-c1cc(=O)c(C(=O)O)cn1[C@H]1[C@@H]2COC1(C)C` [Example 143, (3aS,12bR)-11-(3-methoxypropoxy)-3,3-dimethyl-7-oxo-10-(thiophen-3-yl)-3,3a,7,12b-tetrahydro-1H-furo[3,4-c]pyrido[2,1-a]isoquinoline-6-carboxylic Acid], the pEC50 was more than 7.00.
`Cn1ccc(-c2cc3c(c4c2OC(C)(C)C4)C[C@@H](C(C)(C)C)n2cc(C(=O)O)c(=O)cc2-3)n1` [Example 144, (S)-5-(tert-butyl)-2,2-dimethyl-12-(1-methyl-1H-pyrazol-3-yl)-9-oxo-2,3,4,9-tetrahydro-5H-furo[3,2-f]pyrido[2,1-a]isoquinoline-8-carboxylic Acid] gave a pEC50 of less than 6.00.
The molecule `CC1(C)Cc2c3c(cc(-c4cnsc4)c2O1)-c1cc(=O)c(C(=O)O)cn1[C@H](C(C)(C)C)C3` [Example 145, (S)-5-(tert-butyl)-12-(isothiazol-4-yl)-2,2-dimethyl-9-oxo-2,3,4,9-tetrahydro-5H-furo[3,2-f]pyrido[2,1-a]isoquinoline-8-carboxylic Acid] had a negative-log EC50 (pEC50) of less than 6.00.
In the case of `CC1(C)Cc2c3c(cc(-c4ccn[nH]4)c2O1)-c1cc(=O)c(C(=O)O)cn1[C@H](C(C)(C)C)C3` [Example 146, (S)-5-(tert-butyl)-2,2-dimethyl-9-oxo-12-(1H-pyrazol-5-yl)-2,3,4,9-tetrahydro-5H-furo[3,2-f]pyrido[2,1-a]isoquinoline-8-carboxylic Acid] it was less than 6.00; in that of `CC1(C)Cc2c3c(cc(-c4cn[nH]c4)c2O1)-c1cc(=O)c(C(=O)O)cn1[C@H](C(C)(C)C)C3` [Example 147, (S)-5-(tert-butyl)-2,2-dimethyl-9-oxo-12-(1H-pyrazol-4-yl)-2,3,4,9-tetrahydro-5H-furo[3,2-f]pyrido[2,1-a]isoquinoline-8-carboxylic Acid], less than 6.00; in that of `CC1(C)Cc2c3c(cc(-c4ccco4)c2O1)-c1cc(=O)c(C(=O)O)cn1[C@H](C(C)(C)C)C3` [Example 148, (S)-5-(tert-butyl)-12-(furan-2-yl)-2,2-dimethyl-9-oxo-2,3,4,9-tetrahydro-5H-furo[3,2-f]pyrido[2,1-a]isoquinoline-8-carboxylic Acid], less than 6.00.
